Data reported in patent US8895277B2, “Legume isoprene synthase for production of isoprene” (Danisco US Inc., priority 2012, dated 2014).

How the values were obtained:
[1] = system: E. coli expressing P. alba variant 2 IspS
[2] = system: E. coli expressing P. alba variant 1 IspS; assay: DMAPP toxicity relief: growth in presence of MVA; conditions: 15 to 75 mM MVA; FIG. 13
[3] = system: E. coli expressing P. alba variant 3 IspS; assay: DMAPP toxicity relief: growth in presence of MVA; conditions: FIG. 13
[4] = system: E. coli expressing A. hypogaea IspS; assay: DMAPP toxicity relief: growth in presence of MVA; conditions: FIG. 13
[5] = target: Populus alba isoprene synthase, P. alba variant 1 (Populus alba, UniProt Q50L36); type: biochemical; conditions: substrate DMAPP; 34° C.; Avg Value
[6] = target: Populus alba isoprene synthase, P. alba variant 2 (Populus alba, UniProt Q50L36); type: biochemical; conditions: substrate DMAPP; 34° C.; Avg Value
[7] = substrate: CC(C)=CCOP(=O)(O)OP(=O)(O)O; assay: purified protein, by the assay type; conditions: other: substrate DMAPP, 34° C., Avg Value

## C[C@@](O)(CCO)CC(=O)O [MVA, mevalonic acid]
[1]
  MVA concentration at which growth was inhibited: higher than 15 mM
[2]
  Growth inhibition by MVA: growth was inhibited at any concentration of MVA tested
[3]
  MVA concentration at which growth was partially inhibited: at least 30 mM
[4]
  MVA concentration at which significant growth was seen: 15 to 45 mM

## CC(C)=CCOP(=O)(O)OP(=O)(O)O [DMAPP, 3,3-dimethylallyl diphosphate]
[5]
  Km: 2790 µM
[6]
  Km: 2880 µM

B1: Arachis hypogaea isoprene synthase (A. hypogaea IspS), SEQ ID NO: 3 (Arachis hypogaea) (protein)
chain: MNTRRSANYQPNLWDFEFLQSVENDLQVERLEERARKLEEEVRGLMKKVEIEPLSLLELMDNVERLGLTYKFEEDIKSALNNRIVPLLHHHTINKYGLHATALSFRFLRQHAFHVSPDVFESFKEEGKFKKEISGDVLGLLNLYETSYLGFEGETILDEARAFSATHLKNLLQTNQVQNKVMAEKVRHALELPYHRRVHRLEARWFIERYEQKEAHDGALLELAKLDFNMVQSVMKKELQELSRWWREIGLTSKLDFVRDRLMEVYFWALGMAPHPQLTECRKAVTKMFGLVTIIDDVYDVYGTLDELQLFTDAVDRWDVNAVETLPDYMKLCYLALYNSVNDTAYSTLREKGDNSLPHLAKSWRDLCKAFLQEAKWSNNKIIPPFDAYIRNASVSSSGGALLAPCYFSVTQDSTSQAIDSITNYHGIVRSSCAIFRLCNDLATSAAELERGETTNSITSYMTENGTTEEEARESLGKLIDQEWKKMNRDVVLESAYPNVFKEIAINMARVSHCTYQYGDGLGRPDDTAENRIKLSLIEPIPIN
[7]
  Km: 18300 µM

B2: Populus alba isoprene synthase (P. alba IspS), wild type (WT) (Populus alba) (protein)
chain: MEARRSANYEPNSWDYDYLLSSDTDESIEVYKDKAKKLEAEVRREINNEKAEFLTLLELIDNVQRLGLGYRFESDIRGALDRFVSSGGFDAVTKTSLHGTALSFRLLRQHGFEVSQEAFSGFKDQNGNFLENLKEDIKAILSLYEASFLALEGENILDEAKVFAISHLKELSEEKIGKELAEQVNHALELPLHRRTQRLEAVWSIEAYRKKEDANQVLLELAILDYNMIQSVYQRDLRETSRWWRRVGLATKLHFARDRLIESFYWAVGVAFEPQYSDCRNSVAKMFSFVTIIDDIYDVYGTLDELELFTDAVERWDVNAINDLPDYMKLCFLALYNTINEIAYDNLKDKGENILPYLTKAWADLCNAFLQEAKWLYNKSTPTFDDYFGNAWKSSSGPLQLVFAYFAVVQNIKKEEIENLQKYHDTISRPSHIFRLCNDLASASAEIARGETANSVSCYMRTKGISEELATESVMNLIDETWKKMNKEKLGGSLFAKPFVETAINLARQSHCTYHNGDAHTSPDELTRKRVLSVITEPILPFER
[7]
  Km: 2830 µM
